Source: patent US5519012A, “Inclusion complexes of optically active 1,4-dihydropyridines with methyl-β-cyclodextrin” (LEK, tovarna farmacevtskih in kemicnih izdelkov, d.d., …, priority 1992, dated 1996)
≈ marks a conversion by molar mass, not a printed value. Where a name gives a salt, the structure may show the parent alone.

Tests used:
[1] = Water solubility of racemic and optically active dihydropyridines, free or bound in inclusion complexes (room temperature, filtrates of saturated solutions, liquid chromatography); conditions: for Water solubility, complex. HE-β-CD: bound in inclusion complex with HE-β-CD (2-hydroxyethyl-cyclodextrin); for Water solubility, complex. HP-β-CD: bound in inclusion complex with HP-β-CD (2-hydroxypropyl-cyclodextrin); for Water solubility, complex. Me-β-CD: bound in inclusion complex with Me-β-CD; for Water solubility, complex. β-CD: bound in inclusion complex with β-CD; for Water solubility of particular enantiomers (in words): (-) compared with (+) nicardipine.HCl; for Water solubility, uncomplex.: free form
physchem = conditions: water
[2] = by means of DIMEB (heptakis-(2,6-di-O-dimethyl)-β-cyclodextrin); cited from earlier work
[3] = one enantiomer versus the other; literature; cited from earlier work

Structure (SMILES) | Water solubility, complex. HE-β-CD ([1]; room temperature) | Water solubility, complex. HP-β-CD ([1]; room temperature) | Water solubility, complex. Me-β-CD ([1]; room temperature) | Water solubility, complex. β-CD ([1]; room temperature) | solubility (physchem) | other results
COC(=O)C1=C(C)NC(C)=C(C(=O)OCCN(C)Cc2ccccc2)C1c1cccc([N+](=O)[O-])c1 (racemic) [(±)nicardipine.HCl, 2-(N-benzyl-N-methyl-amino)-ethylmethyl-2,6-dimethyl-4-(3-nitrophenyl) -1,4-dihydropyridine-3,5-dicarboxylatehydrochloride] | 53.8 mg/mL | 97.9 mg/mL | 145.8 mg/mL | 54.8 mg/mL | 1.5 mg/mL | 
COC(=O)C1=C(C)NC(C)=C(C(=O)OCCN(C)Cc2ccccc2)C1c1cccc([N+](=O)[O-])c1 (single isomer, unassigned; (-)) [(-)nicardipine.HCl] | 54.2 mg/mL | 68.0 mg/mL | 127.4 mg/mL | 15.6 mg/mL |  | Water solubility of particular enantiomers (in words) [1]: different water solubilities; Water solubility, uncomplex. ([1]; room temperature): 0.1 mg/mL; Water solubility, complex. HP-β-CD (molar ratio 1:2) ([1]; molar ratio of the complex (-)NC.HCl:HP CD amounts to 1:2, room temperature): 130.0 mg/mL
COc1ccc2c(c1)c(CC(=O)O)c(C)n2C(=O)c1ccc(Cl)cc1 [indometacin] |  |  |  |  |  | enhancement of water solubility [2]: 20.4 times
CCOC(=O)C1=C(COCCN)NC(C)=C(C(=O)OC)[C@H]1c1ccccc1Cl (single isomer, unassigned) [R-(-) isomer of amlodipine] |  |  |  |  |  | activity relative to the other enantiomer [3]: substantially higher activity
COC(=O)C1=C(C)NC(C)=C(C(=O)OCCN(C)Cc2ccccc2)C1c1cccc([N+](=O)[O-])c1 (single isomer, unassigned; (+)) [(+) nicardipine] |  |  |  |  |  | activity relative to the other enantiomer [3]: three times higher activity
CCOC(=O)C1=C(COCCN)NC(C)=C(C(=O)OC)C1c1ccccc1Cl (centres unmarked) [amlodipine besylate, 3-ethyl-5-methyl-2-[(2-aminoethoxy)methyl]-4-(2-chlorophenyl) 1,4-dihydro-6-methyl-3,5-pyridinedicarboxylate-monobenzensulfonate] | 4.5 mg/mL | 17.0 mg/mL | 25.0 mg/mL | 10.0 mg/mL | 1.1 mg/mL | Water solubility (in words) ([1]; comparison in words, inclusion complexes with Me-β-CD): improved water solubility

The next lines start with results.

Water solubility, complex. HE-β-CD ([1]; room temperature) | Water solubility, complex. HP-β-CD ([1]; room temperature) | Water solubility, complex. Me-β-CD ([1]; room temperature) | Water solubility, complex. β-CD ([1]; room temperature) | solubility (physchem) | Structure (SMILES) | other results
 |  |  |  | 0.0008 mg/mL (≈ 2.08 µM) | CCOC(=O)C1=C(C)NC(C)=C(C(=O)OC)C1c1cccc(Cl)c1Cl (centres unmarked) [felodipine, ethylmethyl-1,4-dihydro-2,6-dimethyl-4-(2,3-dichlorophenyl)-3,5-pyridinedicarboxylate] | 
 |  |  |  | 0.0006 mg/mL (≈ 1.66 µM) | CCOC(=O)C1=C(C)NC(C)=C(C(=O)OC)C1c1cccc([N+](=O)[O-])c1 (racemic) [(±)nitrendipine, 3-ethyl-5-methyl-1,4-dihydro-2,6-dimethyl-4-(3-nitrophenyl)-3,5-pyridinedicarboxylate] | 
52.7 mg/mL | 59.9 mg/mL | 133.1 mg/mL | 15.8 mg/mL |  | COC(=O)C1=C(C)NC(C)=C(C(=O)OCCN(C)Cc2ccccc2)C1c1cccc([N+](=O)[O-])c1 (single isomer, unassigned; (+)) [(+)nicardipine.HCl] | Water solubility of particular enantiomers (in words) [1]: different water solubilities; Water solubility, uncomplex. ([1]; room temperature): 0.4 mg/mL
